Measured values from ChEMBL document CHEMBL1201862, “PubChem BioAssay data set” (2004).
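Dose response: 5 concentrations. Exposure: 48 h. Format: 96-well plates. Endpoint: linear interpolation; highest concentration if not reached. The concentration for 50% growth inhibition is given as GI50.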 Calls of active or inactive are those of the source. Rule as the data show it: active = GI50 up to about 1.1 µM and inactive = higher.

What was measured:
Test in all cases: inhibition of tumour cell growth, NCI panel, 48 h
HCT-15 = tested on: HCT-15
HT-29 = tested on: HT-29
NCI-H226 = tested on: NCI-H226
SNB-19 = tested on: SNB-19
NCI-H460 = tested on: NCI-H460
MOLT-4 = tested on: MOLT-4
Hs-578T = tested on: Hs-578T
MDA-MB-231 = tested on: MDA-MB-231
OVCAR-8 = tested on: OVCAR-8
NCI-H23 = tested on: NCI-H23
HL-60 = tested on: HL-60
A549 = tested on: A549
SNB-75 = tested on: SNB-75
HCT-116 = tested on: HCT-116
CCRF-CEM = tested on: CCRF-CEM
LOX IMVI = tested on: LOX IMVI
SN12C = tested on: SN12C
DU-145 = tested on: DU-145
SF-268 = tested on: SF-268
MCF7 = tested on: MCF7

SMILES	GI50 (HCT-15)	GI50 (HT-29)	GI50 (NCI-H226)	GI50 (SNB-19)	GI50 (NCI-H460)	GI50 (MOLT-4)	GI50 (Hs-578T)	GI50 (MDA-MB-231)	GI50 (OVCAR-8)	GI50 (NCI-H23)	GI50 (HL-60)	GI50 (A549)	GI50 (SNB-75)	GI50 (HCT-116)	GI50 (CCRF-CEM)	GI50 (LOX IMVI)	GI50 (SN12C)	GI50 (DU-145)	GI50 (SF-268)	GI50 (MCF7)
CC(C)(C)OC(=O)NCCCNC1(c2cc3ccccc3s2)CCCCC1	14.9 µM	3.15 µM (inactive)	29 µM (inactive)	13.6 µM (inactive)	14.3 µM (inactive)	12.5 µM (inactive)	19.4 µM (inactive)	17.6 µM (inactive)	17.2 µM (inactive)	13 µM (inactive)	10.5 µM (inactive)	12.6 µM (inactive)	15.6 µM (inactive)	12 µM (inactive)	8.22 µM (inactive)	16.8 µM (inactive)	15.3 µM (inactive)	16.9 µM (inactive)	16.7 µM (inactive)	15.9 µM (inactive)
Oc1ccc(SCc2cc(O)c(O)c(O)c2)cc1	39.9 µM	23.5 µM (inactive)	23.7 µM (inactive)	59.4 µM (inactive)	19.1 µM (inactive)	27 µM (inactive)	77.8 µM (inactive)	36.4 µM (inactive)	21.6 µM (inactive)	41.4 µM (inactive)	34.4 µM (inactive)	49.5 µM (inactive)	46.5 µM (inactive)	17.1 µM (inactive)	19.3 µM (inactive)	35.9 µM (inactive)	26.4 µM (inactive)	56.5 µM (inactive)	> 100 µM (inactive)	20.4 µM (inactive)
CC1(C)OCC(C2OC(On3nnc4ccc(Cl)cc43)C3OC(C)(C)OC23)O1 (stereo not given)	> 100 µM	> 100 µM (inactive)	66.1 µM (inactive)	> 100 µM (inactive)	> 100 µM (inactive)	> 100 µM (inactive)	> 100 µM (inactive)	> 100 µM (inactive)	> 100 µM (inactive)	> 100 µM (inactive)	> 100 µM (inactive)	> 100 µM (inactive)	98.9 µM (inactive)	> 100 µM (inactive)	> 100 µM (inactive)	> 100 µM (inactive)	> 100 µM (inactive)	> 100 µM (inactive)	> 100 µM (inactive)	> 100 µM (inactive)
COc1cc(Nc2nc3cc(C(F)(F)F)ccc3nc2C(=O)O)cc(OC)c1OC	39.6 µM	49.7 µM (inactive)	32.9 µM (inactive)	41.5 µM (inactive)	58.1 µM (inactive)	39.7 µM (inactive)	31.7 µM (inactive)	21.8 µM (inactive)	43.8 µM (inactive)	45.1 µM (inactive)	55.2 µM (inactive)	64.4 µM (inactive)	10.6 µM (inactive)	32.7 µM (inactive)	29.4 µM (inactive)	32.1 µM (inactive)	51.2 µM (inactive)	35.1 µM (inactive)	43.9 µM (inactive)	66.5 µM (inactive)
CCCCNc1c(CN)cnc2cc(Cl)ccc12	17.1 µM	16.9 µM (inactive)	16.1 µM (inactive)	22.9 µM (inactive)	13 µM (inactive)	17 µM (inactive)	17.6 µM (inactive)	15.3 µM (inactive)	18.2 µM (inactive)	19.3 µM (inactive)	0.394 µM (active)	20.5 µM (inactive)	19.8 µM (inactive)	15 µM (inactive)	4.7 µM (inactive)	15.4 µM (inactive)	18.4 µM (inactive)	28.1 µM (inactive)	23.6 µM (inactive)	14.5 µM (inactive)
Nc1ncnc2c1ncn2C1OC(CO)C2OC21 (stereo not given)	> 10 µM	> 100 µM (inactive)	> 100 µM (inactive)	> 100 µM (inactive)	> 10 µM (inactive)	> 100 µM (inactive)	> 100 µM (inactive)	> 100 µM (inactive)	> 100 µM (inactive)	> 100 µM (inactive)	> 100 µM (inactive)	> 100 µM (inactive)	> 100 µM (inactive)	> 100 µM (inactive)	> 100 µM (inactive)	> 100 µM (inactive)	> 100 µM (inactive)	> 100 µM (inactive)	> 100 µM (inactive)	> 100 µM (inactive)
COc1ccccc1NS(=O)(=O)c1ccc2ncn(NS(=O)(=O)c3ccc(Cl)cc3)c(=O)c2c1	> 100 µM	> 100 µM (inactive)	> 100 µM (inactive)	> 100 µM (inactive)	> 100 µM (inactive)	> 100 µM (inactive)	77.3 µM (inactive)	> 100 µM (inactive)	> 100 µM (inactive)	> 100 µM (inactive)	85.7 µM (inactive)	75 µM (inactive)	> 100 µM (inactive)	> 100 µM (inactive)	54.7 µM (inactive)	> 100 µM (inactive)	> 100 µM (inactive)	> 100 µM (inactive)	> 100 µM (inactive)	> 100 µM (inactive)
O=C1c2c(ccc3c2CCC3)CC12Cc1ccccc1C2	15.6 µM	9.08 µM (inactive)	18 µM (inactive)	33.7 µM (inactive)	7.03 µM (inactive)	5.04 µM (inactive)	21.4 µM (inactive)	22.4 µM (inactive)	20.5 µM (inactive)	20.8 µM (inactive)	10.4 µM (inactive)	22.3 µM (inactive)	21.5 µM (inactive)	5.92 µM (inactive)	11.4 µM (inactive)	12.7 µM (inactive)	19.5 µM (inactive)	17.7 µM (inactive)	33.7 µM (inactive)	27.5 µM (inactive)
NC1=CN2c3ccccc3N(CC(=O)N3CCOCC3)C2C=C1 (stereo not given)	> 100 µM	> 100 µM (inactive)	> 100 µM (inactive)	> 100 µM (inactive)	> 100 µM (inactive)	> 100 µM (inactive)	> 100 µM (inactive)	> 100 µM (inactive)	> 100 µM (inactive)	> 100 µM (inactive)	> 100 µM (inactive)	> 100 µM (inactive)	> 100 µM (inactive)	> 100 µM (inactive)	> 100 µM (inactive)	> 100 µM (inactive)	> 100 µM (inactive)	> 100 µM (inactive)	> 100 µM (inactive)	> 100 µM (inactive)
C=CCN(c1cc(OCc2ccccc2)c2[nH]cc(C)c2c1)S(C)(=O)=O	> 100 µM	60.8 µM (inactive)	28.7 µM (inactive)	57.9 µM (inactive)	76.2 µM (inactive)	33.5 µM (inactive)	45.8 µM (inactive)	44.6 µM (inactive)	61.9 µM (inactive)	87.1 µM (inactive)	> 100 µM (inactive)	34.7 µM (inactive)	19.8 µM (inactive)	66.4 µM (inactive)	> 100 µM (inactive)	> 100 µM (inactive)	51.3 µM (inactive)	40 µM (inactive)	46.7 µM (inactive)	59.7 µM (inactive)
COCOc1cc(OC)ccc1C=O	36.4 µM	25.6 µM (inactive)	40.8 µM (inactive)	46.1 µM (inactive)	38.5 µM (inactive)	37.2 µM (inactive)	14.8 µM (inactive)	51.3 µM (inactive)	41.3 µM (inactive)	35.6 µM (inactive)	26.7 µM (inactive)	> 100 µM (inactive)	27.5 µM (inactive)	33.7 µM (inactive)	20.7 µM (inactive)	53 µM (inactive)	34.5 µM (inactive)	53.3 µM (inactive)	64.9 µM (inactive)	24.5 µM (inactive)
CSc1c(C(=O)Nc2ccc(C)cc2)c(N)n(N)c(=O)c1C#N	> 100 µM	> 100 µM (inactive)	> 100 µM (inactive)	> 100 µM (inactive)	> 100 µM (inactive)	> 100 µM (inactive)	> 100 µM (inactive)	> 100 µM (inactive)	> 100 µM (inactive)	> 100 µM (inactive)	> 100 µM (inactive)	> 100 µM (inactive)	> 100 µM (inactive)	> 100 µM (inactive)	> 100 µM (inactive)	> 100 µM (inactive)	> 100 µM (inactive)	> 100 µM (inactive)	> 100 µM (inactive)	> 100 µM (inactive)
COC(=O)c1c(C)cccc1C1CN=NC12Cc1cc(C)cc(C)c1C2=O (stereo not given)	30.5 µM	21.5 µM (inactive)	58.5 µM (inactive)	73.3 µM (inactive)	32.1 µM (inactive)	32.1 µM (inactive)	73.1 µM (inactive)	12.4 µM (inactive)	54.1 µM (inactive)	20.7 µM (inactive)	20 µM (inactive)	37.1 µM (inactive)	27 µM (inactive)	27.9 µM (inactive)	23 µM (inactive)	17 µM (inactive)	41.8 µM (inactive)	84.7 µM (inactive)	52.2 µM (inactive)	6.85 µM (inactive)
c1ccc2c(c1)ccn1ccc3c4ccccc4nc-3c21	0.305 µM	0.11 µM (active)	0.31 µM (active)	0.776 µM (active)	0.262 µM (active)	0.0759 µM (active)	1.23 µM (inactive)	0.322 µM (active)	0.182 µM (active)	0.289 µM (active)	0.297 µM (active)	0.32 µM (active)	0.647 µM (active)	0.0935 µM (active)	0.26 µM (active)	0.366 µM (active)	0.285 µM (active)	0.351 µM (active)	0.536 µM (active)	0.229 µM (active)
